Experimental data published in US20180273528A1 (LES LABORATOIRES SERVIER, priority 2015, published 2018).

Experiments:
[1] = target: T1, His-TEV-DYRK1A Kinase domain (aa127-485) (Homo sapiens, UniProt Q13627); test: Kinase ADP assay (ADP Hunter), DYRK1A kinase domain; format: biochemical; conditions: 20 μM ATP
T1 construct: His-TEV-DYRK1A Kinase domain (aa127-485); His tag (N); TEV protease cleavage site (N)
How it was run: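 Readout is ADP Hunter fluorescence at 590 nm, developed 20 min at 30 °C after the kinase step. That step ran 10 min at 30 °C in Hepes pH 7.4 (10 mM MgCl2, 1 mM EGTA, 0.02% Tween20) containing 20 μM ATP, 40 μM peptide and 20 nM enzyme plus compound.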

DYRK1A [2] = target: T2, DYRK1A (Homo sapiens, UniProt Q13627); test: Cellular DYRK1 autophosphorylation assay in U2-OS cells; format: cell-based; design: full-length, wild-type human DYRK1A (NM_001396) with an HA tag; expressed in transfected cells; host or cells: human U2-OS osteosarcoma cells, transient transfection of a pcDNA3.1 plasmid; conditions: U2-OS cells transfected with HA-tagged human DYRK1A, 5 hours exposure; read-out: IC50 (μM) P-Ser520-Dyrk1A -Cell assay
How it was run: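 IC50 derived from dose-response curves of phospho-Ser520-DYRK1A (blots normalised to total DYRK1A), quantified by either immunoblotting with chemiluminescence or Mesoscale electrochemiluminescent ELISA. Compounds applied to U2-OS cells across several concentrations for 5 hours.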

CLK1 = target: T3, CLK1 (Homo sapiens, UniProt P49759); test: Kinase TR-FRET assay, CLK1; format: biochemical; conditions: full-length human kinase, 10 μM ATP
T3 construct: full-length human kinases from Carna Biosciences; purchased Carna Biosciences 04-126
T3 sequence (P49759 1-526 isoform P49759-3): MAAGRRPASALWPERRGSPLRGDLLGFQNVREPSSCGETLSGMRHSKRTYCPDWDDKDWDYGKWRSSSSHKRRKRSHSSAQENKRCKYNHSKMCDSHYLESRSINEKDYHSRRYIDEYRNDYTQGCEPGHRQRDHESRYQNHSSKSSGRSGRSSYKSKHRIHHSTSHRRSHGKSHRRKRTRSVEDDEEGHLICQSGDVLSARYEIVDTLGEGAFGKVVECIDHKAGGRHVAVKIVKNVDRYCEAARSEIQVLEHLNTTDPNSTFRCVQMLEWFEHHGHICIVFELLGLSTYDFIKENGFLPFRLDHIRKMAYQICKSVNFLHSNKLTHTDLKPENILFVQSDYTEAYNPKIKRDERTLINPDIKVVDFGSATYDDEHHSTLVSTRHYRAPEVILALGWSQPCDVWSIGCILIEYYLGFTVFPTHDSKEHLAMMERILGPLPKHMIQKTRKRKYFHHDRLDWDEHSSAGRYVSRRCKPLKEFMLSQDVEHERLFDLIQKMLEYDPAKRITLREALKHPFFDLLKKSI
Protocol: (§1) Inhibition of the enzymatic activity of human kinases was evaluated in a Time-Resolved Fluorescence Resonance Energy Transfer (TR-FRET) assay in 384-well reaction plates. […] Test compounds of the invention were added in reaction buffer at a range of concentrations from 0.1 nM to 30 μM. Following addition of EDTA (Sigma E7889, 10 mM) to stop the reaction, Europium-labelled mouse monoclonal antibody recognizing phospho-Thr232 in MBP (Perkin Elmer TRF0201, 1 nM) was added.

DYRK1B = target: T4, DYRK1B (Homo sapiens, UniProt Q9Y463); test: Kinase TR-FRET assay, DYRK1B; format: biochemical; conditions: full-length human kinase, 10 μM ATP
T4 construct: full-length human kinases from Carna Biosciences; purchased Carna Biosciences 04-131
T4 sequence (Q9Y463 whole entry): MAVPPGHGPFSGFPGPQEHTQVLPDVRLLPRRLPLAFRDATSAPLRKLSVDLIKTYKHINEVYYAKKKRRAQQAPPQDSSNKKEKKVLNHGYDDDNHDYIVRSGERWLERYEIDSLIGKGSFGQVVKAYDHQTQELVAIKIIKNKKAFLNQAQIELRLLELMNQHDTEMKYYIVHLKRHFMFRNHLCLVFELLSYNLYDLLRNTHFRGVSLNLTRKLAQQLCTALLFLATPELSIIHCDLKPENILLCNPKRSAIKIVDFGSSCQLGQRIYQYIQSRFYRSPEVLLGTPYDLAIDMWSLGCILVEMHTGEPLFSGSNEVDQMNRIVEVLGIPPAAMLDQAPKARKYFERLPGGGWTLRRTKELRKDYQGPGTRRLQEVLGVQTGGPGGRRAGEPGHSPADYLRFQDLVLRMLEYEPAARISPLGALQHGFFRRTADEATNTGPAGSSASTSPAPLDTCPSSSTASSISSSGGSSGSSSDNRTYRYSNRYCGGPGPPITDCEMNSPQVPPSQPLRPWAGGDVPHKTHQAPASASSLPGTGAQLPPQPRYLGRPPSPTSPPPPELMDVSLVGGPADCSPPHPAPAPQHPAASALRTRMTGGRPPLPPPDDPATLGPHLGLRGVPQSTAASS
Protocol: as §1

CDK9 = target: T5, CDK9 (Homo sapiens, UniProt P50750); test: Kinase TR-FRET assay, CDK9; format: biochemical; conditions: full-length human kinase, 10 μM ATP
T5 construct: full-length human kinases from Carna Biosciences; purchased Carna Biosciences 04-110
T5 sequence (P50750 whole entry): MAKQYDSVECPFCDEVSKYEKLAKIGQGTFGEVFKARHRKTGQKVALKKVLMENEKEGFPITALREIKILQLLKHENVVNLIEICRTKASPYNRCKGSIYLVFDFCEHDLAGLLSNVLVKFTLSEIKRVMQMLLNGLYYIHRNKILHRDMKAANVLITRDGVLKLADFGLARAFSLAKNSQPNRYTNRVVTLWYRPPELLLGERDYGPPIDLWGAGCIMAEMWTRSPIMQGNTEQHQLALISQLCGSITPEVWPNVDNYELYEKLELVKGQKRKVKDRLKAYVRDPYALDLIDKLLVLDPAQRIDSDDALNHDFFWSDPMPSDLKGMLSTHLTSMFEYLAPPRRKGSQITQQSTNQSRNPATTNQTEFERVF
T5 sequence (O60563 whole entry partner): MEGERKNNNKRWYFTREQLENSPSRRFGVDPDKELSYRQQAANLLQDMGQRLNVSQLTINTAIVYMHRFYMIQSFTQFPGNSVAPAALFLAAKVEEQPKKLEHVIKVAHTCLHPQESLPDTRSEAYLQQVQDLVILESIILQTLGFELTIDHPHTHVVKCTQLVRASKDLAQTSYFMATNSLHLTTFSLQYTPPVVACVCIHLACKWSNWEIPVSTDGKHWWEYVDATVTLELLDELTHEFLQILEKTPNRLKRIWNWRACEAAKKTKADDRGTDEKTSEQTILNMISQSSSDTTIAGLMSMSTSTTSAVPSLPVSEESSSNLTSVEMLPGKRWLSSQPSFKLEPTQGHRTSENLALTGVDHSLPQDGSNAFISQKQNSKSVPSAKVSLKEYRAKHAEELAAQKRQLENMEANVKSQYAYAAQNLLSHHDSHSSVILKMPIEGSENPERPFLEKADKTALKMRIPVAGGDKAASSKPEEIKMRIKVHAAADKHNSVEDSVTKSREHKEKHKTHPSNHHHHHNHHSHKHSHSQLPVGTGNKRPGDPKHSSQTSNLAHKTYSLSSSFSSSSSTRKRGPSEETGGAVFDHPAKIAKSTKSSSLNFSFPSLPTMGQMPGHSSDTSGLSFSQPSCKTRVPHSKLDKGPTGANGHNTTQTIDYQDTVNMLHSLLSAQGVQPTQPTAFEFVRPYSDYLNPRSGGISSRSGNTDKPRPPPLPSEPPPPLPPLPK
Protocol: Inhibition of the enzymatic activity of human kinases was evaluated in a Time-Resolved Fluorescence Resonance Energy Transfer (TR-FRET) assay in 384-well reaction plates. In this assay, full-length human kinases from Carna Biosciences—DYRK1A (NM_001396, ref. 04-130; 2.0 ng/μl), DYRK1B (NM_004714, ref. 04-131; 1.2 ng/p), CLK1 (NM_001162407, ref. 04-126; 0.7 ng/μl), CDK9 (NM_001261, ref. 04-110; 0.9 ng/μl), or GSK3β (NM_001146156, ref. 04-141; 2.0 ng/μl—were incubated for 40 minutes (DYRK1A and DYRK1B) or 100 minutes (CLK1, CDK9 and GSK3β) at room temperature with ATP (Sigma A2383, 10 μM) and a ULight™-labelled human Myelin Basic Protein (MBP) peptide substrate (Perkin Elmer TRF0109, 100 nM) in a reaction buffer composed of 50 mM HEPES pH7.4, 1 mM EGTA, 10 mM MgCl2, 2 mM DTT and 0.01% Tween20. Test compounds of the invention were added in reaction buffer at a range of concentrations from 0.1 nM to 30 μM. Following addition of EDTA (Sigma E7889, 10 mM) to stop the reaction, Europium-labelled mouse monoclonal antibody recognizing phospho-Thr232 in MBP (Perkin Elmer TRF0201, 1 nM) was added. After one hour, the reaction plates were read using a fluorescence reader (EnVision®, Perkin Elmer) at 620 nm and 665 nm (excitation at 340 nm); when the Europium donor fluorophore is excited by light at 340 nm, an energy transfer (620 nm) to the acceptor occurs, which will then emit light at 665 nm.

DYRK1A [3] = target: T2, DYRK1A; test: Kinase TR-FRET assay, DYRK1A; format: biochemical; design: full-length, wild-type human DYRK1A (NM_001396) with an HA tag; expressed in transfected cells; host or cells: human U2-OS osteosarcoma cells, transient transfection of a pcDNA3.1 plasmid; conditions: full-length human kinase, 10 μM ATP
How it was run: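 Compounds tested at 0.1 nM to 30 μM in reaction buffer; reaction stopped with 10 mM EDTA. Phosphorylated MBP detected with 1 nM Europium-labelled anti-phospho-Thr232 antibody by TR-FRET.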

IC50 [1] [µM]	IC50 (DYRK1A [2]) [µM]	IC50 (CLK1) [µM]	IC50 (DYRK1B) [µM]	IC50 (CDK9) [µM]	IC50 (DYRK1A [3]) [µM]	Structure (SMILES)
0.019	0.042	0.02				Cc1nc2ccc(-c3cc(N)nc(N)c3)nc2n1C[C@@H]1C[C@H]1c1ccccc1 (single isomer, unassigned) [Example 110]
0.012	0.226		0.003	1.95	0.003	Cc1nc2ccc(-c3cc(N)nc(N)c3)nc2n1CCc1ccco1 [Example 19, 4-{3-[2-(furan-2-yl)ethyl]-2-methyl-3H-imidazo[4,5-b]pyridin-5-yl}pyridine-2,6-diamine]
0.01	0.228		0.006	1.84	0.007	Cc1nc2ccc(-c3cc(N)nc(N)c3)nc2n1C(C)(C)C [Example 25, 4-(3-tert-butyl-2-methyl-3H-imidazo[4,5-b]pyridin-5-yl)pyridine-2,6-diamine]
0.011	0.057		0.011	3.44	0.004	Cc1nc2ccc(-c3cc(N)nc(N)c3)nc2n1CCc1ccsc1 [Example 29, 4-{2-methyl-3-[2-(thiophen-3-yl)ethyl]-3H-imidazo[4,5-b]pyridin-5-yl}pyridine-2,6-diamine]
0.01	0.07		0.002	1.78	0.009	Cc1nc2ccc(-c3cc(N)nc(N)c3)nc2n1CC(C)C [Example 31, 4-[2-methyl-3-(2-methylpropyl)-3H-imidazo[4,5-b]pyridin-5-yl]pyridine-2,6-diamine]
0.011	0.131		0.011	2.71	0.029	Cc1nc2ccc(-c3cc(N)nc(N)c3)nc2n1CC1CCOC1 (stereo not drawn) [Example 41, 4-[2-methyl-3-(tetrahydrofuran-3-ylmethyl)-3H-imidazo[4,5-b]pyridin-5-yl]pyridine-2,6-diamine]
0.013	0.08		0.013	> 10	0.003	Cc1nc2ccc(-c3cc(N)nc(N)c3)nc2n1CCc1ccc(Cl)c(Cl)c1 [Example 58, 4-{3-[2-(3,4-dichlorophenyl)ethyl]-2-methyl-3H-imidazo[4,5-b]pyridin-5-yl}pyridine-2,6-diamine]
0.009	0.155		0.004	> 10	0.002	Cc1nc2ccc(-c3cc(N)nc(N)c3)nc2[nH]1 [Example 61, 4-(2-methyl-3H-imidazo[4,5-b]pyridin-5-yl)pyridine-2,6-diamine]
0.008	0.024		0.007	> 10	0.003	Cc1ccccc1CCn1c(C)nc2ccc(-c3cc(N)nc(N)c3)nc21 [Example 63, 4-{2-methyl-3-[2-(2-methylphenyl)ethyl]-3H-imidazo[4,5-b]pyridin-5-yl}pyridine-2,6-diamine]
0.009	0.072		0.012	0.365	0.005	Cc1nc2ccc(-c3cc(N)nc(N)c3)nc2n1C1CCSCC1 [Example 66, 4-[2-methyl-3-(tetrahydro-2H-thiopyran-4-yl)-3H-imidazo[4,5-b]pyridin-5-yl]pyridine-2,6-diamine]
0.025	0.133	0.018				Cc1nc2ccc(-c3cc(N)nc(N)c3)nc2n1CCC1CCOCC1 [Example 78, 4-{2-methyl-3-[2-(tetrahydro-2H-pyran-4-yl)ethyl]-3H-imidazo[4,5-b]pyridin-5-yl}pyridine-2,6-diamine]
0.021	0.068	0.014				Cc1nc2ccc(-c3cc(N)nc(N)c3)nc2n1CCc1ccccc1C(F)(F)F [Example 79, 4-(2-methyl-3-{2-[2-(trifluoromethyl)phenyl]ethyl}-3H-imidazo[4,5-b]pyridin-5-yl)pyridine-2,6-diamine]
0.021	0.094	0.015				COc1ccccc1CCn1c(C)nc2ccc(-c3cc(N)nc(N)c3)nc21 [Example 81, 4-{3-[2-(2-methoxyphenyl)ethyl]-2-methyl-3H-imidazo[4,5-b]pyridin-5-yl}pyridine-2,6-diamine]
0.015	0.129	0.016				CCOc1cccc(CCn2c(C)nc3ccc(-c4cc(N)nc(N)c4)nc32)c1 [Example 90, 4-{3-[2-(3-ethoxyphenyl)ethyl]-2-methyl-3H-imidazo[4,5-b]pyridin-5-yl}pyridine-2,6-diamine]
0.015	0.097	0.021				Cc1nc2ccc(-c3cc(N)nc(N)c3)nc2n1CC1CC1c1ccccc1 (stereo not drawn) [Example 97, 4-{2-methyl-3-[(2-phenylcyclopropyl)methyl]-3H-imidazo[4,5-b]pyridin-5-yl}pyridine-2,6-diamine]
0.026	0.33		0.004	> 10	0.01	Cc1nc2ccc(-c3cc(N)nc(N)c3)nc2n1[C@H](C)c1ccnc(F)c1 [Example 149, 4-{3-[(1R)-1-(2-fluoropyridin-4-yl)ethyl]-2-methyl-3H-imidazo[4,5-b]pyridin-5-yl}pyridine-2,6-diamine]
0.019	0.28		0.014	3.03	0.006	COCCCn1c(C)nc2ccc(-c3cc(N)nc(N)c3)nc21 [Example 150, 4-[3-(3-methoxypropyl)-2-methyl-3H-imidazo[4,5-b]pyridin-5-yl]pyridine-2,6-diamine]
0.012	0.22		0.007	> 10	0.002	COc1cccc(CCn2c(C)nc3ccc(-c4cc(N)nc(N)c4)nc32)c1 [Example 152, 4-{3-[2-(3-methoxyphenyl)ethyl]-2-methyl-3H-imidazo[4,5-b]pyridin-5-yl}pyridine-2,6-diamine]
0.017	0.151		0.016	0.554	0.013	CCc1nc2ccc(-c3cc(N)nc(N)c3)nc2n1C1CCCC1 [Example 156, 4-(3-cyclopentyl-2-ethyl-3H-imidazo[4,5-b]pyridin-5-yl)pyridine-2,6-diamine]
0.01	0.089		0.008	0.881	0.006	Cc1nc2ccc(-c3cc(N)nc(N)c3)nc2n1CCOc1ccccn1 [Example 217, 4-{2-methyl-3-[2-(pyridin-2-yloxy)ethyl]-3H-imidazo[4,5-b]pyridin-5-yl}pyridine-2,6-diamine]
0.012		0.021				C=CCn1c(C#N)nc2ccc(-c3cc(N)nc(N)c3)nc21 [Example 225, 5-(2,6-diaminopyridin-4-yl)-3-(prop-2-en-1-yl)-3H-imidazo[4,5-b]pyridine-2-carbonitrile]
